Where two headings read alike, the source gives them in different places. Blank lines part the entries; values can stand above or below the molecule they belong to.
How the values were obtained:
[1] = molecular target: T1, S6K1 (Homo sapiens, UniProt P23443, T412E); assay: S6K1 DELFIA phosphorylation assay (IC50 of screening hits); format: biochemical; conditions: for LE (ligand efficiency): calculated using the mean IC50 values; for IC50: repurchased samples
T1 construct: The His-tagged kinase domain of S6K1 (residues 1-421, catalogue number 14-486) used in the HTS; His; purchased Millipore (Upstate/Millipore) 14-486
T1 sequence (P23443 1-421 T412E limits assumed): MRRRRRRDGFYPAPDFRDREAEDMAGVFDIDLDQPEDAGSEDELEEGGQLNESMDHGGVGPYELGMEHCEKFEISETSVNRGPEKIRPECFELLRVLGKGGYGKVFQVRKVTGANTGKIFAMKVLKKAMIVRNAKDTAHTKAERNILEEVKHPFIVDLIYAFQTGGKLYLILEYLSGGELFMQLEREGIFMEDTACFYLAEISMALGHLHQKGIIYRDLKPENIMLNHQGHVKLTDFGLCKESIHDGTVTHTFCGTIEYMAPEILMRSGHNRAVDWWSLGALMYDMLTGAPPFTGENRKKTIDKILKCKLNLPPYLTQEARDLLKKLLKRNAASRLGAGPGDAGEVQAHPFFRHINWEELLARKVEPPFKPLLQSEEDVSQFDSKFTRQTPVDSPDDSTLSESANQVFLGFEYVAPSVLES
Experimental: For primary screening hits, IC50 values were determined using a DELFIA® assay that monitors phosphorylation of a S6 peptide using a specific phospho-antibody. The enzyme reaction was carried out in 96 well polypropylene plates (#650261; Greiner Bio-One, Frickenhausen, Germany).
For each compound, a 10mM stock was diluted in water resulting in a 1250 μM solution in 12.5% (v/v) DMSO. Compounds were manually diluted 1 in 3 in 12.5% (v/v) DMSO to give an eight point dilution curve in duplicate. Finally, 5 μL compound solution or 12.5% (v/v) DMSO was transferred to the assay plate resulting in compound assay concentrations of 0.12-250 μM.
Subsequently, 20 μL of reaction reagents were added to the assay plate resulting in final assay concentrations of 1 μM S6 peptide (biotin-[…], synthesised by J. Metcalfe, ICR), 2 nM S6K1 (#14-486; Millipore, Billerica, MA, USA) and 30 μM ATP in assay buffer consisting of 40 mM HEPES pH 7.4, 10 mM MgCl2, 1 mM DTT and 0.02% (v/v) Tween 20. The reaction was incubated for an hour at 37 °C and stopped by the addition of 125 μL buffer comprising 40 mM EDTA, 0.05% (v/v) Tween 20, 0.1% (w/v) BSA in TBS (10x concentrate, Sigma-Aldrich, Gillingham, UK). A 100 μL aliquot of the reaction solution was transferred to a black neutravidin-coated plate (#15117; Perbio/Thermo Scientific, Cramlington, UK) and incubated for an hour on a Titertek shaker (Flow Laboratories, Sutton, UK) at room temperature. The plates were washed four times with WellWash4 wash buffer (Thermo Life Sciences Ltd, Basingstoke, UK) containing 25 mM Tris pH 8, 150 mM NaCl and 0.1% (v/v) Tween 20 and incubated for an hour with 100 μL of an antibody mix consisting of 0.05 nM of an anti-phospho S6 antibody (#2211; Cell Signalling Technology) and 0.18 μg/mL of an europium-labelled anti-rabbit IgG, (#AD0105; PerkinElmer Life Sciences, Waltham, MA, USA) diluted in DELFIA assay buffer (#4002-0010; PerkinElmer Life Sciences). The plates were washed a further four times with WellWash4 wash buffer (Thermo Life Sciences) before the addition of 100 μL Enhancement Solution (#4001-0010; PerkinElmer Life Sciences). The plate was read on an EnVision® 2103 Multilabel Reader (PerkinElmer Life Sciences) using a time-resolved measurement mode reading fluorescence at 615 nm. IC50 values were calculated from a four-parameter logistics fit of percentage inhibition versus concentration using GraphPad Prism 5 (GraphPad Software, Inc., CA, USA).

[2] = molecular target: S6K1 (Homo sapiens, UniProt P23443); assay: S6K1 mobility shift (microfluidic) assay; format: biochemical; conditions: for LE (ligand efficiency): calculated using the mean IC50 values; for activity against S6K1 (in words): benzimidazole / azabenzimidazole oxadiazoles
S6K1 (Homo sapiens, UniProt P23443), sequence (P23443 1-421): as the sequence (P23443 1-421 T412E limits assumed) above, with E412T counted along it
Experimental: For all compounds from the benzimidazole oxadiazole/azabenzimidazole oxadiazole series, the IC50 values were determined using a microfluidic assay that monitors the separation of a phosphorylated product from its substrate. […] For each compound, a 10 mM stock concentration in 100% DMSO was used.
IC50 values were calculated from a four-parameter logistics fit of percentage inhibition versus concentration using GraphPad Prism 5 (GraphPad Software, Inc., CA, USA).

[3] = test system: AKT-Thr308; assay: Electrochemiluminescent ELISA, AKT-Thr308 phosphorylation in intact cells; format: cell-based; conditions: Homo sapiens, electrochemoluminescent ELISA
Experimental: (§1) The human bladder carcinoma cell line HCV29 was obtained from Dr Richard Lamb (University of Liverpool, UK). This cell line has elevated mTORC1 and S6K activity through loss of TSC1 [46] as a result of a missense mutation and TSC2 loss that was confirmed by immunoblotting (data not shown). Cells were cultured in RPMI (Invitrogen, Life Technologies Ltd, Paisley, UK) containing 2 mmol/L glutamine (Invitrogen), and supplemented with non-essential amino acids (Invitrogen) 10% fetal bovine serum (PAA Laboratories Ltd, Yeovil, UK) in 5% CO2 in air at 37 °C. GI50 values (concentrations) causing 50% inhibition of proliferation for tumour cells were determined using a sulforhodamine B assay. Electrochemiluminescent immunoassays (Meso Scale Discovery, Rockville, MD, USA) measuring the inhibition of phosphorylation of RPS6-ser235/236, AKT-Thr308, AKT-Ser473, GSK3b-Ser9 and S6K-Ser421/424 were carried out as described in Raynaud et al..

[4] = test system: S6K-Ser421/424; assay: Electrochemiluminescent ELISA, S6K-Ser421/424 phosphorylation in intact cells; format: cell-based; conditions: Homo sapiens, electrochemoluminescent ELISA
Experimental: as §1

[5] = test system: RPS6-ser235/236; assay: Electrochemiluminescent ELISA, RPS6 Ser235/236 phosphorylation in intact cells; format: cell-based; conditions: Homo sapiens, HCV-29; HCV29 intact cells, 2 hours exposure, n=3; read-out: EC50 for 50% inhibition of RPS6 Ser235/236 phosphorylation
Experimental: as §1

[6] = test system: HCV29 human bladder carcinoma cells; assay: Sulforhodamine B proliferation assay (GI50); format: cell-based; conditions: HCV-29, 96 hours continuous exposure, read-out: GI50 (50% tumour growth inhibition)
Experimental: as §1

[7] = test system: GSK3b-Ser9; assay: Electrochemiluminescent ELISA, GSK3b-Ser9 phosphorylation in intact cells; format: cell-based; conditions: Homo sapiens, electrochemoluminescent ELISA
Experimental: as §1

[8] = molecular target: S6K2 (Homo sapiens, UniProt Q9UBS0); assay: S6K2 inhibition; format: biochemical
S6K2, sequence (Q9UBS0 whole entry): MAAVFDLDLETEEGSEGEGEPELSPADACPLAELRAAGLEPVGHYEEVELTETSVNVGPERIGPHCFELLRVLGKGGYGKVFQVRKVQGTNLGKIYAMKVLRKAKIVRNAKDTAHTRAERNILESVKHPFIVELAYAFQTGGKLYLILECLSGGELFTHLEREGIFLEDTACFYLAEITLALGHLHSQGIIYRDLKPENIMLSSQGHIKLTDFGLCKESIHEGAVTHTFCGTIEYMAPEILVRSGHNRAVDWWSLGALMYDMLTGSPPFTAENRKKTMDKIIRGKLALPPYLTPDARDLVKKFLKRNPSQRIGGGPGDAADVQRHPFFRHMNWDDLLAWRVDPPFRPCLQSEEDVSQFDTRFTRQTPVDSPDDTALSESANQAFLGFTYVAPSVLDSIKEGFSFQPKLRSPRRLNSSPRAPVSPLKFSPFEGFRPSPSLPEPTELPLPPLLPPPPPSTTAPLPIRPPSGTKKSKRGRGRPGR

[9] = test system: AKT-Ser473; assay: Electrochemiluminescent ELISA, AKT-Ser473 phosphorylation in intact cells; format: cell-based; conditions: Homo sapiens, electrochemoluminescent ELISA
Experimental: as §1

[10] = Table 2, confirmation DELFIA assay, mean ± standard error, duplicate
[11] = Table 3, confirmation DELFIA assay, mean ± standard error, duplicate
[12] = Table 4, mobility shift assay, mean ± SD triplicate, or duplicate/single measurement as footnoted, read-out: S6K1 IC50
[13] = Table 5, mobility shift assay, mean ± SD triplicate, or single measurement as footnoted, read-out: S6K1 IC50
[14] = Table 6, mobility shift assay, mean ± SD triplicate, or duplicate ± SE / single measurement as footnoted, read-out: S6K1 IC50

Structure (SMILES): O=c1c2ccccc2nc(-c2cccnc2)n1-c1ccc(Br)cn1 [Compound 7]
LE (ligand efficiency) ([1]; Table 2): 0.38 | IC50 [1, 10]: 260 ± 150 nM

Structure (SMILES): Cc1ccc(-n2c(-c3ccccn3)nc3ccccc3c2=O)cc1 [Compound 8]
LE (ligand efficiency) ([1]; Table 2): 0.33 | IC50 [1, 10]: 1550 ± 920 nM

Structure (SMILES): O=c1c2ccccc2nc(-c2ccccn2)n1-c1ccccc1 [Compound 9]
LE (ligand efficiency) ([1]; Table 2): 0.33 | IC50 [1, 10]: 2970 ± 1530 nM

LE (ligand efficiency) ([1]; Table 3): 0.50 | IC50 [1, 11]: 340 ± 140 nM
Structure (SMILES): CC(C)n1c(-c2nonc2N)nc2ccccc21 [Compound 10]

IC50 ([1]; HTS hits): 7000 nM | LE (ligand efficiency) ([1]; Table 3): 0.40 | IC50 [1, 11]: 6980 ± 2070 nM
Structure (SMILES): C=CCn1c(-c2nonc2N)nc2ccccc21 [Compound 11]

LE (ligand efficiency) ([2]; Table 4): 0.58 | IC50 [2, 12]: 194 nM | activity against S6K1 (in words) [2]: about six-fold less active
Structure (SMILES): Cn1c(-c2nonc2N)nc2ccccc21 [Compound 15a, 4-(1-Methyl-1H-benzoimidazol-2-yl)-1,2,5-oxadiazole-3-ylamine]

LE (ligand efficiency) ([2]; Table 4): 0.59 | IC50 [2, 12]: 59.8 ± 32.4 nM
Structure (SMILES): CCn1c(-c2nonc2N)nc2ccccc21 [Compound 15b, 4-(1-Ethyl-1H-benzoimidazol-2-yl)-1,2,5-oxadiazole-3-ylamine]

LE (ligand efficiency) ([2]; Table 4): 0.57 | IC50 [2, 12]: 36.6 ± 7 nM
Structure (SMILES): Nc1nonc1-c1nc2ccccc2n1C1CC1 [Compound 15c, 4-(1-Cyclopropyl-1H-benzoimidazol-2-yl)-1,2,5-oxadiazole-3-ylamine]

Structure (SMILES): Nc1nonc1-c1nc2ccccc2n1Cc1ccccc1 [Compound 15d, 4-(1-Benzyl-1H-benzoimidazol-2-yl)-1,2,5-oxadiazole-3-ylamine]
IC50 [2, 12]: > 100000 nM | activity against S6K1 (in words) [2]: complete loss of biochemical activity

LE (ligand efficiency) ([2]; Table 4): 0.56 | IC50 [2, 12]: 19.8 nM
Structure (SMILES): Nc1nonc1-c1nc2ccccc2n1CC1CC1 [Compound 15e, 4-(1-Cyclopropylmethyl-1H-benzoimidazol-2-yl)-1,2,5-oxadiazole-3-ylamine]

Structure (SMILES): CC(=O)Nc1nonc1-c1nc2ccccc2n1C1CC1 [Compound 16, N-[4-(1-Cyclopropyl-1H-benzoimidazol->2-yl)-1,2,5-oxadiazole-3-yl]-acetamide]
IC50 ([2]; acetylated aminooxadiazole, read-out: S6K IC50): > 100000 nM

Structure (SMILES): CCn1c(-c2nonc2N)nc2cc(Br)ccc21 [Compound 20a, 3-Amino-4-(5-bromo-1-ethyl-1H-benzimidazol-2-yl)-1,2,5-oxadiazole]
LE (ligand efficiency) ([2]; Table 5): 0.55 | IC50 [2, 13]: 66.4 ± 5.6 nM

Structure (SMILES): CCn1c(-c2nonc2N)nc2cc(-c3ccccc3)ccc21 [Compound 20b, 3-Amino-4-(1-ethyl-5-phenyl-1H-benzimidazol-2-yl)-1,2,5-oxadiazole]
LE (ligand efficiency) ([2]; Table 5): 0.35 | IC50 [2, 13]: 1640 ± 530 nM

Structure (SMILES): CCn1c(-c2nonc2N)nc2cc(C3CC3)ccc21 [Compound 20c, 3-Amino-4-(5-cyclopropyl-1-ethyl-1H-benzimidazol-2-yl)-1,2,5-oxadiazole]
LE (ligand efficiency) ([2]; Table 5): 0.45 | IC50 [2, 13]: 334 ± 25.1 nM

Structure (SMILES): CCn1c(-c2nonc2N)nc2cc(OC)ccc21 [Compound 20d, 3-Amino-4-(1-ethyl-5-methoxy-1H-benzimidazol-2-yl)-1,2,5-oxadiazole]
LE (ligand efficiency) ([2]; Table 5): 0.52 | IC50 [2, 13]: 63.4 nM

Structure (SMILES): CCn1c(-c2nonc2N)nc2cc(NC)ccc21 [Compound 20e, 3-Amino-4-(1-ethyl-5-methylamino-1H-benzimidazol-2-yl)-1,2,5-oxadiazole]
LE (ligand efficiency) ([2]; Table 5): 0.50 | IC50 [2, 13]: 148 nM

Structure (SMILES): CCn1c(-c2nonc2N)nc2cccc(Br)c21 [Compound 20f, 3-Amino-4-(7-bromo-1-ethyl-1H-benzimidazol-2-yl)-1,2,5-oxadiazole]
LE (ligand efficiency) ([2]; Table 5): 0.50 | IC50 [2, 13]: 303 ± 21 nM

Structure (SMILES): CCn1c(-c2nonc2N)nc2cccc(-c3cccnc3)c21 [Compound 20g, 3-Amino-4-(7-(3-pyridinyl)-1-ethyl-1H-benzimidazol-2-yl)-1,2,5-oxadiazole]
LE (ligand efficiency) ([2]; Table 5): 0.39 | IC50 [2, 13]: 352 ± 173 nM

Structure (SMILES): CCn1c(-c2nonc2N)nc2cnc(Br)cc21 [Compound 21a, 3-Amino-4-(6-bromo-1-ethyl-1H-imidazo[4,5-c]pyridin-2-yl)-1,2,5-oxadiazole]
LE (ligand efficiency) ([2]; Table 6): 0.59 | IC50 [2, 14]: 19.7 ± 2.6 nM

Structure (SMILES): CCn1c(-c2nonc2N)nc2cnc(Oc3cccc(S(C)(=O)=O)c3)cc21 [Compound 21b, 4-[1-Ethyl-6-(3-methanesulfonyl-phenoxy)-1H-imidazo[4,5-c]pyridin-2-yl]-1,2,5-oxadiazole-3-ylamine]
LE (ligand efficiency) ([2]; Table 6): 0.34 | IC50 [2, 14]: 103 ± 23 nM

Structure (SMILES): CCn1c(-c2nonc2N)nc2cnc(-c3ccccc3)cc21 [Compound 21c, 4-(1-Ethyl-6-phenyl-1H-imidazo[4,5-c]pyridin-2-yl)-1,2,5-oxadiazole-3-ylamine]
IC50 [2, 14]: > 100000 nM | activity against S6K1 (in words) [2]: abolished all affinity for S6K1

Structure (SMILES): CCn1c(-c2nonc2N)nc2cnc(N3CCOCC3)cc21 [Compound 21d, 4-(1-Ethyl-6-morpholin-4-yl-1H-imidazo[4,5-c]pyridin-2-yl)-1,2,5-oxadiazole-3-ylamine]
LE (ligand efficiency) ([2]; Table 6): 0.42 | IC50 [2, 14]: 110 nM

Structure (SMILES): CCn1c(-c2nonc2N)nc2cnc(C)cc21 [Compound 21e, 4-(1-Ethyl-6-methyl-1H-imidazo[4,5-c]pyridin-2-yl)-1,2,5-oxadiazole-3-ylamine]
IC50 [3]: > 15000 nM | IC50 [4]: > 15000 nM | EC50 [5]: 9100 ± 1500 nM | GI50 [6]: 3500 nM | IC50 [7]: > 15000 nM | IC50 [8]: 300 ± 102 nM | IC50 [9]: > 15000 nM | ligand efficiency [2]: 0.6 | LE (ligand efficiency) ([2]; Table 6): 0.60 | IC50 [2, 14]: 17.4 ± 6 nM

Reference: paper PMC3858552, “The discovery of potent ribosomal S6 kinase inhibitors by high-throughput screening and structure-guided drug design” (Oncotarget, 2013)
